Measurements reported in patent US20240285634A1, “COMPOUND AND METHOD FOR TREATING CHEMOTHERAPY-ASSOCIATED GASTROINTESTINAL SIDE EFFECTS” (ONQUALITY PHARMACEUTICALS CHINA LTD., priority 2021, published 2024).

Test system: Chemotherapeutic agent-caused constipation models of Balb/c mice
Assay: Relieving effect on constipation caused by a chemotherapeutic agent (Examples 202-364)
Format: in vivo
From the text: Construction of mouse animal models: Chemotherapeutic agent-caused constipation models of Balb/c mice were constructed according to the administration mode and frequency of the chemotherapeutic agent as shown in Table 4. […] Thus, chemotherapeutic agent-caused constipation models of mice are very good models to mimic constipation caused by the chemotherapeutic agent.
Balb/c mice were fed for 1 week, and then divided into groups. The experiment was divided into a control group, a chemotherapeutic agent group, and a group of the compound as shown in Formula I, each of which comprised 10 mice, to perform the administration experiment, for which the administration dosage, mode, time and frequency were shown in Table 4. The control group: being injected or intragastrically administered with the same solvent as that used in the group of the compound as shown in Formula I (the administration mode and time were shown in Table 4), and then being injected or intragastrically administered with the same solvent as that used in the chemotherapeutic agent group (the administration mode was shown in Table 4); the chemotherapeutic agent group: being injected or intragastrically administered with the same solvent as that used in the group of the compound as shown in Formula I (the administration mode and time was shown in Table 4), and then being injected or intragastrically administered with the chemotherapeutic agent (the type, administration mode and dosage were shown in Table 4); the group of the compound as shown in Formula I: being injected or intragastrically administered with the compound as shown in Formula I (the administration mode and time was shown in Table 4), and then being administered with the chemotherapeutic agent (the administration mode and dosage were shown in Table 4).
The feces reduction rate was calculated with reference to the method of Ji Eun Kim (Lab Anim Res. 2016 December; 32(4): 231-240.). Feces reduction rate (%)=(the control group−the chemotherapeutic agent group or the group of the compound as shown in Formula I)/the control group*100%
It is regarded as effective remission when the feces reduction rate of mice in the group of the compound as shown in Formula I is reduced compared with that in the chemotherapeutic agent group.
The feces amount of mice within 3 hours was observed and recorded every day. At the end of the experiment, the number of mice in the group of the compound as shown in Formula I whose feces reduction rate was lower than that of mice in the chemotherapeutic agent group was recorded. Table 4 lists various animal experiment combinations of chemotherapeutic agents and the compound as shown in Formula I, as well as the corresponding experimental results.

CN1CCN(c2ccc(Nc3ncc4cc5n(c4n3)C3(CCCCC3)CNC5=O)nc2)CC1 [Compound I, Trilaciclib]
Relative remission rate (%) (Example 202, Fluorouracil (5-Fu) intraperitoneal injection 175 mg/kg single, compound intravenous injection 100 mg/kg, frequency 8, 0.5 h before chemotherapeutic agent, cycle 10 days): 40%
Relative remission rate (%) (Example 203, Fluorouracil (5-Fu) intraperitoneal injection 175 mg/kg single, compound intravenous injection 100 mg/kg, frequency 8, 1 h before chemotherapeutic agent, cycle 10 days): 30%
Relative remission rate (%) (Example 204, Fluorouracil (5-Fu) intraperitoneal injection 175 mg/kg single, compound intravenous injection 100 mg/kg, frequency 8, 2 h before chemotherapeutic agent, cycle 10 days): 40%
Relative remission rate (%) (Example 205, Fluorouracil (5-Fu) intraperitoneal injection 175 mg/kg single, compound intravenous injection 100 mg/kg, frequency 8, 3 h before chemotherapeutic agent, cycle 10 days): 40%
Relative remission rate (%) (Example 206, Fluorouracil (5-Fu) intraperitoneal injection 175 mg/kg single, compound intravenous injection 100 mg/kg, frequency 8, 4 h before chemotherapeutic agent, cycle 10 days): 30%
Relative remission rate (%) (Example 207, Fluorouracil (5-Fu) intraperitoneal injection 175 mg/kg single, compound intravenous injection 100 mg/kg, frequency 8, 5 h before chemotherapeutic agent, cycle 10 days): 20%
Relative remission rate (%) (Example 208, Fluorouracil (5-Fu) intraperitoneal injection 175 mg/kg single, compound intravenous injection 100 mg/kg, frequency 8, 6 h before chemotherapeutic agent, cycle 10 days): 50%
Relative remission rate (%) (Example 209, Fluorouracil (5-Fu) intraperitoneal injection 175 mg/kg single, compound intravenous injection 100 mg/kg, frequency 8, 7 h before chemotherapeutic agent, cycle 10 days): 50%
Relative remission rate (%) (Example 210, Fluorouracil (5-Fu) intraperitoneal injection 175 mg/kg single, compound intravenous injection 100 mg/kg, frequency 8, 8 h before chemotherapeutic agent, cycle 10 days): 40%
Relative remission rate (%) (Example 211, Fluorouracil (5-Fu) intraperitoneal injection 175 mg/kg single, compound intravenous injection 100 mg/kg, frequency 8, 9 h before chemotherapeutic agent, cycle 10 days): 40%
Relative remission rate (%) (Example 212, Fluorouracil (5-Fu) intraperitoneal injection 175 mg/kg single, compound intravenous injection 100 mg/kg, frequency 8, 10 h before chemotherapeutic agent, cycle 10 days): 30%
Relative remission rate (%) (Example 213, Fluorouracil (5-Fu) intraperitoneal injection 175 mg/kg single, compound intravenous injection 100 mg/kg, frequency 8, 11 h before chemotherapeutic agent, cycle 10 days): 50%
Relative remission rate (%) (Example 214, Fluorouracil (5-Fu) intraperitoneal injection 175 mg/kg single, compound intravenous injection 12.5 mg/kg, frequency 8, 12 h before chemotherapeutic agent, cycle 10 days): 20%
Relative remission rate (%) (Example 215, Fluorouracil (5-Fu) intraperitoneal injection 175 mg/kg single, compound intravenous injection 25 mg/kg, frequency 8, 12 h before chemotherapeutic agent, cycle 10 days): 30%
Relative remission rate (%) (Example 216, Fluorouracil (5-Fu) intraperitoneal injection 175 mg/kg single, compound intravenous injection 50 mg/kg, frequency 8, 12 h before chemotherapeutic agent, cycle 10 days): 30%
Relative remission rate (%) (Example 217, Fluorouracil (5-Fu) intraperitoneal injection 175 mg/kg single, compound intravenous injection 100 mg/kg, frequency 8, 12 h before chemotherapeutic agent, cycle 10 days): 40%
Relative remission rate (%) (Example 218, Fluorouracil (5-Fu) intraperitoneal injection 175 mg/kg single, compound intravenous injection 150 mg/kg, frequency 8, 12 h before chemotherapeutic agent, cycle 10 days): 60%
Relative remission rate (%) (Example 219, Fluorouracil (5-Fu) intraperitoneal injection 175 mg/kg single, compound intravenous injection 240 mg/kg, frequency 8, 12 h before chemotherapeutic agent, cycle 10 days): 60%
Relative remission rate (%) (Example 220, Fluorouracil (5-Fu) intraperitoneal injection 175 mg/kg single, compound intravenous injection 100 mg/kg, frequency 8, 13 h before chemotherapeutic agent, cycle 10 days): 40%
Relative remission rate (%) (Example 221, Fluorouracil (5-Fu) intraperitoneal injection 175 mg/kg single, compound intravenous injection 100 mg/kg, frequency 8, 14 h before chemotherapeutic agent, cycle 10 days): 40%
Relative remission rate (%) (Example 222, Fluorouracil (5-Fu) intraperitoneal injection 175 mg/kg single, compound intravenous injection 100 mg/kg, frequency 8, 16 h before chemotherapeutic agent, cycle 10 days): 50%
Relative remission rate (%) (Example 223, Fluorouracil (5-Fu) intraperitoneal injection 175 mg/kg single, compound intravenous injection 100 mg/kg, frequency 8, 18 h before chemotherapeutic agent, cycle 10 days): 60%
Relative remission rate (%) (Example 224, Fluorouracil (5-Fu) intraperitoneal injection 175 mg/kg single, compound intravenous injection 100 mg/kg, frequency 8, 20 h before chemotherapeutic agent, cycle 10 days): 60%
Relative remission rate (%) (Example 225, Fluorouracil (5-Fu) intraperitoneal injection 175 mg/kg single, compound intravenous injection 100 mg/kg, frequency 8, 22 h before chemotherapeutic agent, cycle 10 days): 30%
Relative remission rate (%) (Example 226, Fluorouracil (5-Fu) intraperitoneal injection 175 mg/kg single, compound intravenous injection 100 mg/kg, frequency 8, 24 h before chemotherapeutic agent, cycle 10 days): 30%
Relative remission rate (%) (Example 227, Fluorouracil (5-Fu) intraperitoneal injection 175 mg/kg single, compound intravenous injection 100 mg/kg, frequency 8, 48 h before chemotherapeutic agent, cycle 10 days): 0%
Relative remission rate (%) (Example 228, Fluorouracil (5-Fu) intravenous injection 250 mg/kg single, compound intraperitoneal injection 100 mg/kg single, 0.5 h before chemotherapeutic agent, cycle 10 days): 30%
Relative remission rate (%) (Example 229, Fluorouracil (5-Fu) intravenous injection 250 mg/kg single, compound intraperitoneal injection 100 mg/kg single, 1 h before chemotherapeutic agent, cycle 10 days): 40%
Relative remission rate (%) (Example 230, Fluorouracil (5-Fu) intravenous injection 250 mg/kg single, compound intraperitoneal injection 100 mg/kg single, 2 h before chemotherapeutic agent, cycle 10 days): 40%
Relative remission rate (%) (Example 231, Fluorouracil (5-Fu) intravenous injection 250 mg/kg single, compound intraperitoneal injection 100 mg/kg single, 4 h before chemotherapeutic agent, cycle 10 days): 60%
Relative remission rate (%) (Example 232, Fluorouracil (5-Fu) intravenous injection 250 mg/kg single, compound intraperitoneal injection 100 mg/kg single, 6 h before chemotherapeutic agent, cycle 10 days): 60%
Relative remission rate (%) (Example 233, Fluorouracil (5-Fu) intravenous injection 250 mg/kg single, compound intraperitoneal injection 100 mg/kg single, 8 h before chemotherapeutic agent, cycle 10 days): 50%
Relative remission rate (%) (Example 234, Fluorouracil (5-Fu) intravenous injection 250 mg/kg single, compound intraperitoneal injection 100 mg/kg single, 10 h before chemotherapeutic agent, cycle 10 days): 50%
Relative remission rate (%) (Example 235, Fluorouracil (5-Fu) intravenous injection 250 mg/kg single, compound intraperitoneal injection 100 mg/kg single, 12 h before chemotherapeutic agent, cycle 10 days): 70%
Relative remission rate (%) (Example 236, Fluorouracil (5-Fu) intravenous injection 250 mg/kg single, compound intraperitoneal injection 100 mg/kg single, 14 h before chemotherapeutic agent, cycle 10 days): 40%
Relative remission rate (%) (Example 237, Fluorouracil (5-Fu) intravenous injection 250 mg/kg single, compound intraperitoneal injection 100 mg/kg single, 16 h before chemotherapeutic agent, cycle 10 days): 40%
Relative remission rate (%) (Example 238, Fluorouracil (5-Fu) intravenous injection 250 mg/kg single, compound intraperitoneal injection 100 mg/kg single, 18 h before chemotherapeutic agent, cycle 10 days): 50%
Relative remission rate (%) (Example 239, Fluorouracil (5-Fu) intravenous injection 250 mg/kg single, compound intraperitoneal injection 100 mg/kg single, 20 h before chemotherapeutic agent, cycle 10 days): 50%
Relative remission rate (%) (Example 240, Fluorouracil (5-Fu) intravenous injection 250 mg/kg single, compound intraperitoneal injection 100 mg/kg single, 24 h before chemotherapeutic agent, cycle 10 days): 50%
Relative remission rate (%) (Example 287, Irinotecan (CPT-11) intraperitoneal injection 260 mg/kg single, compound intravenous injection 150 mg/kg single, 1 h before chemotherapeutic agent, cycle 8 days): 40%
Relative remission rate (%) (Example 288, Irinotecan (CPT-11) intraperitoneal injection 260 mg/kg single, compound intravenous injection 150 mg/kg single, 2 h before chemotherapeutic agent, cycle 8 days): 50%
Relative remission rate (%) (Example 289, Irinotecan (CPT-11) intraperitoneal injection 260 mg/kg single, compound intravenous injection 150 mg/kg single, 3 h before chemotherapeutic agent, cycle 8 days): 50%
Relative remission rate (%) (Example 290, Irinotecan (CPT-11) intraperitoneal injection 260 mg/kg single, compound intravenous injection 150 mg/kg single, 4 h before chemotherapeutic agent, cycle 8 days): 40%
Relative remission rate (%) (Example 291, Irinotecan (CPT-11) intraperitoneal injection 260 mg/kg single, compound intravenous injection 150 mg/kg single, 5 h before chemotherapeutic agent, cycle 8 days): 30%
Relative remission rate (%) (Example 292, Irinotecan (CPT-11) intraperitoneal injection 260 mg/kg single, compound intravenous injection 150 mg/kg single, 6 h before chemotherapeutic agent, cycle 8 days): 40%
Relative remission rate (%) (Example 293, Irinotecan (CPT-11) intraperitoneal injection 260 mg/kg single, compound intravenous injection 150 mg/kg single, 7 h before chemotherapeutic agent, cycle 8 days): 50%
Relative remission rate (%) (Example 294, Irinotecan (CPT-11) intraperitoneal injection 260 mg/kg single, compound intravenous injection 150 mg/kg single, 8 h before chemotherapeutic agent, cycle 8 days): 60%
Relative remission rate (%) (Example 295, Irinotecan (CPT-11) intraperitoneal injection 260 mg/kg single, compound intravenous injection 150 mg/kg single, 9 h before chemotherapeutic agent, cycle 8 days): 70%
Relative remission rate (%) (Example 296, Irinotecan (CPT-11) intraperitoneal injection 260 mg/kg single, compound intravenous injection 150 mg/kg single, 10 h before chemotherapeutic agent, cycle 8 days): 50%
Relative remission rate (%) (Example 297, Irinotecan (CPT-11) intraperitoneal injection 260 mg/kg single, compound intravenous injection 150 mg/kg single, 11 h before chemotherapeutic agent, cycle 8 days): 50%
Relative remission rate (%) (Example 298, Irinotecan (CPT-11) intraperitoneal injection 260 mg/kg single, compound intravenous injection 150 mg/kg single, 12 h before chemotherapeutic agent, cycle 8 days): 40%
Relative remission rate (%) (Example 299, Irinotecan (CPT-11) intraperitoneal injection 260 mg/kg single, compound intravenous injection 150 mg/kg single, 14 h before chemotherapeutic agent, cycle 8 days): 40%
Relative remission rate (%) (Example 300, Irinotecan (CPT-11) intraperitoneal injection 260 mg/kg single, compound intravenous injection 150 mg/kg single, 16 h before chemotherapeutic agent, cycle 8 days): 40%
Relative remission rate (%) (Example 301, Irinotecan (CPT-11) intraperitoneal injection 260 mg/kg single, compound intravenous injection 150 mg/kg single, 18 h before chemotherapeutic agent, cycle 8 days): 50%
Relative remission rate (%) (Example 302, Irinotecan (CPT-11) intraperitoneal injection 260 mg/kg single, compound intravenous injection 150 mg/kg single, 20 h before chemotherapeutic agent, cycle 8 days): 50%
